From publication PMC7719179, “Small molecule inhibition of Dynamin-dependent endocytosis targets multiple niche signals and impairs leukemia stem cells” (Nature Communications, 2020)
“And” between values parts separate entries of the source, which are not always exact repeats. Equal values may be shown once.

Legend:
[1] = test system: pSTAT5 in patient-derived ETP-ALL and T-ALL cells; assay: IL-7-induced pSTAT5 in human ETP-ALL and T-ALL xenograft cells; assay type: cell-based; details: for pSTAT5 relative expression, FOLD: fold over unstimulated
Description: Splenocytes from secondary xenografts were processed as previously described. […] Flow cytometric analysis of surface IL-7R levels and intracellular levels of pSTAT5 were performed as described in the FACS analysis section. For activation of NOTCH1-mediated signalling, 5 × 10^5 rested leukemia cells were seeded on OP9-DL1 stromal cells. Co-culture on OP9 stromal cells was used as a negative control. After 16 h of co-culture, leukemia cells were washed twice using cold PBS 1×. Flow cytometric analysis of NOTCH1 expression and intracellular levels of HES1 were performed as described in the FACS analysis section.

[2] = test system: pSTAT5 and pERK in patient-derived AML cells; assay: Cytokine-induced pSTAT5 and pERK in patient-derived AML cells; assay type: cell-based, human; details: for pERK relative expression, FOLD / pSTAT5 relative expression, FOLD: fold over unstimulated; for pSTAT5 FOLD: relative expression vs Unstimulated
Description: All bone marrow or peripheral blood samples from patients with AML were collected after informed consent, in accordance with guidelines approved by the Human Research Ethics Committee of Alfred Health. Human AML cells were thawed, washed, and adjusted to 2 × 10^6 cells/mL in Iscove’s Modified Dulbecco’s Media (#12440053, Gibco, Grand Island NY, USA) supplemented with Glutamax 2 mM (Gibco) and 1% v/v Penicillin/Streptomycin (Gibco). […] For cytokine-mediated signalling assays, cells were incubated with vehicle or Dynole 34-2 for 1 h, and subsequently stimulated with either 25 ng/mL rhIL-3 (#200-03, Pepro Tech), 25 ng/mL rhGM-CSF (#300-03, Pepro Tech) or 125 ng/mL rhSCF (#300-07, Pepro Tech) at 37 °C for 20 min. Cells were washed twice using cold PBS 1× and flow cytometry analyses were done on single-cell suspensions using BD Pharmingen antibodies against human CD45 (#557748), IL-3R (CD123, #560087), GM-CSFR alpha chain (CD116, #554532) and BioLegend antibody against human KIT (A3C6E2). For assessing intracellular levels of pSTAT5 and phospho-ERK, flow cytometry analyses were performed in duplicate on patient-derived AML cells as described in the FACS analysis section. The MFI observed without stimulation was reported as 1.

For `CCCCCCCCNC(=O)C(C#N)=Cc1cn(CCCN(C)C)c2ccccc12` [Dynole 34-2, 2-Cyano-N-octyl-3-(1-(3-dimethylaminopropyl)-1H-indol-3-yl)-acrylamide], the “pSTAT5 relative expression, MFI” value ([1]; ALL8) was 3715 MFI and 3714 MFI, the “pSTAT5 relative expression, FOLD” value ([1]; ALL8) was 1.22 FOLD and the “pSTAT5 relative expression, MFI” value ([1]; ALL16) was 2090 MFI and 2194 MFI. The “pSTAT5 relative expression, FOLD” value ([1]; ALL16) was 0.95 FOLD and 0.91 FOLD, the “pSTAT5 relative expression, MFI” value ([1]; ALL29) was 3568 MFI and 3339 MFI and the “pSTAT5 relative expression, FOLD” value ([1]; ALL29) was 1.36 FOLD and 1.45 FOLD. For the same molecule, the “pSTAT5 relative expression, MFI” value ([1]; ALL31) was 2246 MFI and 2071 MFI, the “pSTAT5 relative expression, FOLD” value ([1]; ALL31) was 1.23 FOLD and 1.34 FOLD and the “pSTAT5 relative expression, MFI” value ([1]; ALL33) was 2163 MFI and 2294 MFI. The “pSTAT5 relative expression, FOLD” value ([1]; ALL33) was 1.35 FOLD and 1.27 FOLD, the “pSTAT5 relative expression, MFI” value ([1]; ETP1) was 6780 MFI and 6557 MFI and the “pSTAT5 relative expression, FOLD” value ([1]; ETP1) was 2.05 FOLD and 2.11 FOLD. The “pSTAT5 relative expression, MFI” value ([1]; ETP5) was 3059 MFI and 3334 MFI, the “pSTAT5 relative expression, FOLD” value ([1]; ETP5) was 1.58 FOLD and 1.45 FOLD and the “pSTAT5 relative expression, MFI” value ([1]; ETP8) was 6837 MFI and 6719 MFI. For the same molecule, the “pSTAT5 relative expression, FOLD” value ([1]; ETP8) was 2.21 FOLD and 2.25 FOLD, the “pSTAT5 relative expression, MFI” value ([1]; ETP12) was 6017 MFI and 6210 MFI and the “pSTAT5 relative expression, FOLD” value ([1]; ETP12) was 2.47 FOLD and 2.39 FOLD. The “pSTAT5 relative expression, MFI” value ([1]; ETP13) was 7147 MFI and 4013 MFI, the “pSTAT5 relative expression, FOLD” value ([1]; ETP13) was 0.99 FOLD and 1.76 FOLD and the “pSTAT5 relative expression, MFI” value ([1]; ETP14) was 7024 MFI and 6660 MFI. The “pSTAT5 relative expression, FOLD” value ([1]; ETP14) was 1.46 FOLD and 1.54 FOLD, the pSTAT5 protein levels ([1]; immature and mature subtypes of human T-ALL, 1 h pre-treatment, result in words) was “significantly decreased” and the “pERK relative expression, MFI” value ([2]; AML01-021) was 1807 MFI. For the same molecule, the “pSTAT5 relative expression, MFI” value ([2]; AML01-021) was 4941 MFI, the “pStat5 (MFI)” value ([2]; AML01-021) was 2538 MFI and the “pERK relative expression, FOLD” value ([2]; AML01-021) was 1.07 FOLD. The “pSTAT5 relative expression, FOLD” value ([2]; AML01-021) was 1.87 FOLD, the “pSTAT5 FOLD” value ([2]; AML01-021) was 1.02 and the “pERK relative expression, MFI” value ([2]; AML01-050) was 10447 MFI. The “pSTAT5 relative expression, MFI” value ([2]; AML01-050) was 19500 MFI, the “pStat5 (MFI)” value ([2]; AML01-050) was 29884 MFI and the “pERK relative expression, FOLD” value ([2]; AML01-050) was 1.28 FOLD. The “pSTAT5 relative expression, FOLD” value ([2]; AML01-050) was 0.97 FOLD, the “pSTAT5 FOLD” value ([2]; AML01-050) was 0.84 and the “pERK relative expression, MFI” value ([2]; AML01-072) was 2195 MFI. For the same molecule, the “pSTAT5 relative expression, MFI” value ([2]; AML01-072) was 18325 MFI, the “pStat5 (MFI)” value ([2]; AML01-072) was 10160 MFI and the “pERK relative expression, FOLD” value ([2]; AML01-072) was 1.01 FOLD. For the same molecule, the “pSTAT5 relative expression, FOLD” value ([2]; AML01-072) was 0.91 FOLD, the “pSTAT5 FOLD” value ([2]; AML01-072) was 0.88 and the “pERK relative expression, MFI” value ([2]; AML01-226) was 1574 MFI. For the same molecule, the “pSTAT5 relative expression, MFI” value ([2]; AML01-226) was 673 MFI, the “pStat5 (MFI)” value ([2]; AML01-226) was 511 MFI and the “pERK relative expression, FOLD” value ([2]; AML01-226) was 1.05 FOLD. For the same molecule, the “pSTAT5 relative expression, FOLD” value ([2]; AML01-226) was 0.89 FOLD, the “pSTAT5 FOLD” value ([2]; AML01-226) was 1.01 and the “pERK relative expression, MFI” value ([2]; AML01-307) was 2891 MFI. For the same molecule, the “pSTAT5 relative expression, MFI” value ([2]; AML01-307) was 12933 MFI, the “pStat5 (MFI)” value ([2]; AML01-307) was 10786 MFI and the “pERK relative expression, FOLD” value ([2]; AML01-307) was 1.06 FOLD. For the same molecule, the “pSTAT5 relative expression, FOLD” value ([2]; AML01-307) was 1.07 FOLD, the “pSTAT5 FOLD” value ([2]; AML01-307) was 1.08 and the “pERK relative expression, MFI” value ([2]; AML02-078) was 5047 MFI. For the same molecule, the “pSTAT5 relative expression, MFI” value ([2]; AML02-078) was 31582 MFI, the “pStat5 (MFI)” value ([2]; AML02-078) was 31914 MFI and the “pERK relative expression, FOLD” value ([2]; AML02-078) was 0.79 FOLD. For the same molecule, the “pSTAT5 relative expression, FOLD” value ([2]; AML02-078) was 1.24 FOLD, the “pSTAT5 FOLD” value ([2]; AML02-078) was 1.05 and the “pERK relative expression, MFI” value ([2]; AML02-123) was 4380 MFI. The “pSTAT5 relative expression, MFI” value ([2]; AML02-123) was 22757 MFI, the “pStat5 (MFI)” value ([2]; AML02-123) was 30741 MFI and the “pERK relative expression, FOLD” value ([2]; AML02-123) was 1.16 FOLD. The “pSTAT5 relative expression, FOLD” value ([2]; AML02-123) was 1.15 FOLD, the “pSTAT5 FOLD” value ([2]; AML02-123) was 1.00 and the “pERK relative expression, MFI” value ([2]; AML02-232) was 1644 MFI. The “pSTAT5 relative expression, MFI” value ([2]; AML02-232) was 1406 MFI, the “pStat5 (MFI)” value ([2]; AML02-232) was 688 MFI and the “pERK relative expression, FOLD” value ([2]; AML02-232) was 1.04 FOLD. The “pSTAT5 relative expression, FOLD” value ([2]; AML02-232) was 1.59 FOLD, the “pSTAT5 FOLD” value ([2]; AML02-232) was 0.73 and the “pERK relative expression, MFI” value ([2]; AML03-330) was 10652 MFI. For the same molecule, the “pSTAT5 relative expression, MFI” value ([2]; AML03-330) was 5650 MFI, the “pStat5 (MFI)” value ([2]; AML03-330) was 6696 MFI and the “pERK relative expression, FOLD” value ([2]; AML03-330) was 0.97 FOLD. For the same molecule, the “pSTAT5 relative expression, FOLD” value ([2]; AML03-330) was 1.04 FOLD, the “pSTAT5 FOLD” value ([2]; AML03-330) was 1.02 and the “pERK relative expression, MFI” value ([2]; AML03-331) was 1814 MFI. For the same molecule, the “pSTAT5 relative expression, MFI” value ([2]; AML03-331) was 1899 MFI, the “pStat5 (MFI)” value ([2]; AML03-331) was 2344 MFI and the “pERK relative expression, FOLD” value ([2]; AML03-331) was 0.94 FOLD. For the same molecule, the “pSTAT5 relative expression, FOLD” value ([2]; AML03-331) was 1.03 FOLD, the “pSTAT5 FOLD” value ([2]; AML03-331) was 1.02 and the “pERK relative expression, MFI” value ([2]; AML4) was 1091 MFI. The “pSTAT5 relative expression, MFI” value ([2]; AML4) was 3442 MFI, the “pStat5 (MFI)” value ([2]; AML4) was 3071 MFI and the “pERK relative expression, FOLD” value ([2]; AML4) was 1.13 FOLD. The “pSTAT5 relative expression, FOLD” value ([2]; AML4) was 0.95 FOLD, the “pSTAT5 FOLD” value ([2]; AML4) was 0.85 and the “pERK relative expression, MFI” value ([2]; AML16) was 2510 MFI. The “pSTAT5 relative expression, MFI” value ([2]; AML16) was 17405 MFI, the “pStat5 (MFI)” value ([2]; AML16) was 13885 MFI and the “pERK relative expression, FOLD” value ([2]; AML16) was 0.44 FOLD. For the same molecule, the “pSTAT5 relative expression, FOLD” value ([2]; AML16) was 0.88 FOLD, the “pSTAT5 FOLD” value ([2]; AML16) was 0.70 and the “pERK relative expression, MFI” value ([2]; AML17) was 822 MFI. For the same molecule, the “pSTAT5 relative expression, MFI” value ([2]; AML17) was 3831 MFI, the “pStat5 (MFI)” value ([2]; AML17) was 3091 MFI and the “pERK relative expression, FOLD” value ([2]; AML17) was 0.99 FOLD. For the same molecule, the “pSTAT5 relative expression, FOLD” value ([2]; AML17) was 1.02 FOLD, the “pSTAT5 FOLD” value ([2]; AML17) was 1.01 and the “pERK relative expression, MFI” value ([2]; AML18) was 985 MFI. For the same molecule, the “pSTAT5 relative expression, MFI” value ([2]; AML18) was 4716 MFI, the “pStat5 (MFI)” value ([2]; AML18) was 4188 MFI and the “pERK relative expression, FOLD” value ([2]; AML18) was 0.99 FOLD. For the same molecule, the “pSTAT5 relative expression, FOLD” value ([2]; AML18) was 0.86 FOLD, the “pSTAT5 FOLD” value ([2]; AML18) was 1.02 and the “pERK relative expression, MFI” value ([2]; AML34) was 2315 MFI. For the same molecule, the “pStat5 (MFI)” value ([2]; AML34) was 10444 MFI, the “pERK relative expression, FOLD” value ([2]; AML34) was 0.84 FOLD and the “pSTAT5 FOLD” value ([2]; AML34) was 1.43. The “pERK relative expression, MFI” value ([2]; AML54) was 2163 MFI, the “pStat5 (MFI)” value ([2]; AML54) was 4818 MFI and the “pERK relative expression, FOLD” value ([2]; AML54) was 0.94 FOLD. The “pSTAT5 FOLD” value ([2]; AML54) was 0.89 and the “downstream signalling (pSTAT5) in human AML cells” value ([2]; result in words) was “blocked downstream signalling”.
